Data as given in patent US20050002947A1, “In vitro bioassay employing laboratory-cultured larvae of strongyloides stercoralis” (University of the West Indies, priority 2003, published 2005).

Experiments:
S. stercoralis larvae [1] = assay: Larval tolerance to emulsifiers; assay type: cell-based
From the text: Triton® X-100 (octylphenoxy polyethoxyethanol) is recommended for use as an emulsifier, where necessary. A concentration of 1-4% in 0.01% ELNS had no effect on larval mobility or mortality.
Other suitable surfactants for dispersing plant extracts can be developed by routine testing according to the described procedures.

S. stercoralis larvae [2] = assay: Larval tolerance to methanol (solvent); assay type: cell-based, Strongyloides stercoralis; settings: aqueous solutions containing methanol; cumulative percentage mortality
Description: Active constituents of plants are typically extracted in organic solvents such as methanol. […] Studies of methanol toxicity for S. stercoralis indicate that a methanol concentration exceeding 5 μg/100 mL LNS (>50 times that detected in plant extracts using NMR analyses) is required to exert any significant effect on larval mortality.

S. stercoralis larvae [3] = assay: Dye exclusion test using eosin to tell live from killed larvae; assay type: cell-based; settings: for Percentage of S. stercoralis larvae stained using eosin in vitro: n~100
Description: Dye exclusion tests have been used successfully to indicate viability in parasitic platyhelminths, and similar testing can be applied to S. stercoralis larvae. Use of 0.01% v/v eosin in LNS (ELNS) in a dye exclusion test indicated death of larvae in less than 10 minutes, and 0.01-0.03% ELNS had no effect on healthy individuals. The larvae typically survive for more than 100 hours in ELNS. Accordingly, LNS is a preferred medium in which to maintain larvae harvested from multiplication in coproculture and ELNS is a preferred medium for evaluating the effects of physiologically active materials, such as candidate anthelmintic materials, on the larvae. However, the skilled practitioner will recognize that any medium in which the larvae can be maintained for a convenient period of time, and any appropriate vital staining dye, can be used in the method of the invention.
The results of a comparative test to establish the ability of a dye exclusion procedure using eosin to discriminate between live and killed larvae are presented in Table 1 below. FIG. 1 is a photomicrograph of a microscopic inspection field showing a number of larvae of S. stercoralis after exposure to an anthelmintic agent.

octylphenoxy polyethoxyethanol [Triton® X-100]
Effect on larval mobility (S. stercoralis larvae [1]; 1-4% in 0.01% ELNS): no effect
Effect on larval mortality (S. stercoralis larvae [1]; 1-4% in 0.01% ELNS): no effect

CO [methanol]
Methanol concentration required to exert any significant effect on larval mortality (S. stercoralis larvae [2]): exceeding 5 μg/100 mL LNS

O=C1OC2(c3ccccc31)c1cc(Br)c(O)c(Br)c1Oc1c2cc(Br)c(O)c1Br [eosin]
Time in which the dye exclusion test indicated death of larvae (S. stercoralis larvae [3]; 0.01% v/v eosin in LNS): less than 10 minutes
Percentage of S. stercoralis larvae stained using eosin in vitro (S. stercoralis larvae [3]; heat killed larvae (60° C./30 min), eosin 0.01% (w/v), 0 min): 0%
Percentage of S. stercoralis larvae stained using eosin in vitro (S. stercoralis larvae [3]; heat killed larvae (60° C./30 min), eosin 0.01% (w/v), 10 min): 100%
Percentage of S. stercoralis larvae stained using eosin in vitro (S. stercoralis larvae [3]; heat killed larvae (60° C./30 min), eosin 0.03% (w/v), 0 min): 0%
Percentage of S. stercoralis larvae stained using eosin in vitro (S. stercoralis larvae [3]; heat killed larvae (60° C./30 min), eosin 0.03% (w/v), 10 min): 100%
Percentage of S. stercoralis larvae stained using eosin in vitro (S. stercoralis larvae [3]; living larvae, eosin 0.01% (w/v), 0 min): 0%
Percentage of S. stercoralis larvae stained using eosin in vitro (S. stercoralis larvae [3]; living larvae, eosin 0.01% (w/v), 10 min): 1%
Percentage of S. stercoralis larvae stained using eosin in vitro (S. stercoralis larvae [3]; living larvae, eosin 0.01% (w/v), 20 min): 1%
Percentage of S. stercoralis larvae stained using eosin in vitro (S. stercoralis larvae [3]; living larvae, eosin 0.01% (w/v), 30 min): 2%
Percentage of S. stercoralis larvae stained using eosin in vitro (S. stercoralis larvae [3]; living larvae, eosin 0.01% (w/v), 40 min): 2%
Percentage of S. stercoralis larvae stained using eosin in vitro (S. stercoralis larvae [3]; living larvae, eosin 0.01% (w/v), 50 min): 2%
Percentage of S. stercoralis larvae stained using eosin in vitro (S. stercoralis larvae [3]; living larvae, eosin 0.01% (w/v), 60 min): 2%
Percentage of S. stercoralis larvae stained using eosin in vitro (S. stercoralis larvae [3]; living larvae, eosin 0.01% (w/v), column headed only "(min)", after 60): 2%
Percentage of S. stercoralis larvae stained using eosin in vitro (S. stercoralis larvae [3]; living larvae, eosin 0.03% (w/v), 0 min): 0%
Percentage of S. stercoralis larvae stained using eosin in vitro (S. stercoralis larvae [3]; living larvae, eosin 0.03% (w/v), 10 min): 1%
Percentage of S. stercoralis larvae stained using eosin in vitro (S. stercoralis larvae [3]; living larvae, eosin 0.03% (w/v), 20 min): 1%
Percentage of S. stercoralis larvae stained using eosin in vitro (S. stercoralis larvae [3]; living larvae, eosin 0.03% (w/v), 30 min): 2%
Percentage of S. stercoralis larvae stained using eosin in vitro (S. stercoralis larvae [3]; living larvae, eosin 0.03% (w/v), 40 min): 2%
Percentage of S. stercoralis larvae stained using eosin in vitro (S. stercoralis larvae [3]; living larvae, eosin 0.03% (w/v), 50 min): 2%
Percentage of S. stercoralis larvae stained using eosin in vitro (S. stercoralis larvae [3]; living larvae, eosin 0.03% (w/v), 60 min): 2%
Percentage of S. stercoralis larvae stained using eosin in vitro (S. stercoralis larvae [3]; living larvae, eosin 0.03% (w/v), column headed only "(min)", after 60): 3%

Tween® 20
Toxicity to S. stercoralis larvae (S. stercoralis larvae [1]; 0.1-0.4% in 0.1% ELNS): toxic
